# Target: R5 gp120 (Human immunodeficiency virus type 1 group M subtype B, UniProt P35961)
# Conditions: CD4/CCR5 transfected U87 cells; 20 μg/mL gp120; western blot
# Description: Cell bound R5 gp120 was detected by western blot. […] Lanes 1: cells alone; Cells treated with 2: 20 μg/mL gp120; 3: 20 μg/mL gp120+20 μM adaGb Gb3; 4: 20 μg/mL gp120+50 μM ada Gb3; 5: 20 μg/mL gp120+150 μM ada Gb3; 6: 20 μg/mL gp120+5 μg/mL solCD4; 7: 20 μg/mL gp120+5 μg/mL solCD4+20 μM ada Gb3; 8: 20 μg/mL gp120+5 μg/mL solCD4+50 μM ada Gb3; 9: 20 μg/mL gp120+5 μg/mL solCD4+150 μM ada Gb3; 10: 20 μg/mL gp120+50 μM.
structure (smiles),measurement,value
CCCCCCCCCCCCC/C=C/[C@@H](O)[C@H](CO[C@@H]1O[C@H](CO)[C@@H](O[C@@H]2O[C@H](CO)[C@H](O[C@H]3O[C@H](CO)[C@H](O)[C@H](O)[C@H]3O)[C@H](O)[C@H]2O)[C@H](O)[C@H]1O)NC(=O)CC12CC3CC(CC(C3)C1)C2 [AdamantylGb3],binding of R5 gp120 to CCR5 of cells after pretreatment of gp120,reduces its binding to CCR5 of cells

# Reference: patent US20180179166A1, “SMALL MOLECULE INHIBITORS OF GP120-MEDIATED HIV INFECTION AND METHODS OF USE” (ViroCarb Inc., priority 2014, published 2018)
